Experimental data taken from patent US8859549B2, “Potassium channel modulators” (AbbVie, Inc., priority 2011, dated 2014).

Target: T1, KCNQ 2/3 channels (Homo sapiens, UniProt O43525+O43526)
T1 construct: expressed in transfected cells; host or cells: HEK293
Test: KCNQ 2/3 channel activation, thallium flux FLIPR assay (BTC-AM dye)
Type: cell-based
Settings: for Emax: HEK293, maximum response relative to the response of 10 μM retigabine (set at 100%), read-out: % MAX; for EC50: HEK293 cells stably expressing human KCNQ2 and KCNQ3 subunits, thallium-induced fluorescence, 4 min compound incubation
In short: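 HEK293 cells stably expressing human KCNQ2/KCNQ3 were loaded with BTC-AM (3 μg/mL, 2 h, RT) and preincubated with compound for 4 min in pH 7.3 gluconate buffer containing 0.1 mM ouabain. Flux was triggered by 6 mM TlNO3/10 mM K2SO4 and read for 3 min; EC50 came from summed responses over basal, with maximum relative to 10 μM retigabine (100%).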

| Emax (HEK293 KCNQ2/KCNQ3 cells) | EC50 | % MAX (maximum response relative to the response of 10 μM retigabine (set at 100%), HEK293 KCNQ2/KCNQ3 cells) | SMILES |
| --- | --- | --- | --- |
| 112% | 2.81 µM |  | O=C(Cc1cc(F)cc(F)c1)Nn1nc(-c2ccccn2)c2ccccc2c1=O [Example 18, 2-(3,5-difluorophenyl)-N-[1-oxo-4-(pyridin-2-yl)phthalazin-2(1H)-yl]acetamide] |
| 101% | 0.32 µM |  | CCC1CN(c2nn(NC(=O)Cc3ccc(Cl)cc3)c(=O)c3ccccc23)CCO1 (stereo not shown) [Example 221, 2-(4-chlorophenyl)-N-[4-(2-ethylmorpholin-4-yl)-1-oxophthalazin-2(1H)-yl]acetamide] |
| 33.7% | 1.28 µM |  | O=C(Cc1ccc(Cl)cc1)Nn1nc(CNC(=O)OCC(F)(F)F)c2ccccc2c1=O [Example 129, 2,2,2-trifluoroethyl[(3-{[(4-chlorophenyl)acetyl]amino}-4-oxo-3,4-dihydrophthalazin-1-yl)methyl]carbamate] |
| 87.4% | 1.52 µM |  | O=C(Cc1cccc(OC(F)(F)F)c1)Nn1nc(N2CCOCC2)c2ccccc2c1=O [Example 162, N-[4-(morpholin-4-yl)-1-oxophthalazin-2(1H)-yl]-2-[3-(trifluoromethoxy)phenyl]acetamide] |
| 129% | 0.455 µM |  | O=C(CC1CC2CCC1C2)Nn1nc(-c2cccnc2)c2ccccc2c1=O (racemic) [Example 8, (±)-2-[(exo)-bicyclo[2.2.1]hept-2-yl]-N-[1-oxo-4-(pyridin-3-yl)phthalazin-2(1H)-yl]acetamide] |
| 187% | 0.618 µM |  | O=C(Cc1cc(F)cc(F)c1)Nn1nc(N2CCSCC2)c2ccccc2c1=O [Example 92, 2-(3,5-difluorophenyl)-N-[1-oxo-4-(thiomorpholin-4-yl)phthalazin-2(1H)-yl]acetamide] |
| 1.17% |  |  | O=C(Cc1ccccc1Br)Nn1nc(N2CCOCC2)c2ccccc2c1=O [Example 153, 2-(2-bromophenyl)-N-[4-(morpholin-4-yl)-1-oxophthalazin-2(1H)-yl]acetamide] |
| 10.5% |  |  | O=C(Cc1ccc(Cl)cc1)Nn1nc(CCO)c2ccccc2c1=O [Example 121, 2-(4-chlorophenyl)-N-[4-(2-hydroxyethyl)-1-oxophthalazin-2(1H)-yl]acetamide] |
| 192% | 0.0146 µM |  | O=C(CC1CC2CCC1C2)Nn1nc(Sc2ccccc2)c2ccccc2c1=O (racemic) [Example 59, (±)-2-[(exo)-bicyclo[2.2.1]hept-2-yl]-N-[1-oxo-4-(phenylsulfanyl)phthalazin-2(1H)-yl]acetamide] |
| 15.3% |  |  | O=C(Cc1ccc(Cl)cc1)Nn1nc(CNC(=O)OCc2ccccc2)c2ccccc2c1=O [Example 188, benzyl[(3-{[(4-chlorophenyl)acetyl]amino}-4-oxo-3,4-dihydrophthalazin-1-yl)methyl]carbamate] |
| 71.8% | 0.938 µM |  | COc1cccc(CC(=O)Nn2nc(S(=O)(=O)c3ccccc3)c3ccccc3c2=O)c1 [Example 205, 2-(3-methoxyphenyl)-N-[1-oxo-4-(phenylsulfonyl)phthalazin-2(1H)-yl]acetamide] |
| 78.5% | 1.32 µM |  | O=C(Cc1ccc(Cl)cc1)Nn1nc(Sc2ccncc2)c2ccccc2c1=O [Example 191, 2-(4-chlorophenyl)-N-[1-oxo-4-(pyridin-4-ylsulfanyl)phthalazin-2(1H)-yl]acetamide] |
| 32% |  |  | O=C(Cc1ccc(Cl)cc1)Nn1nc(CNC(=O)OC2CCCC2)c2ccccc2c1=O [Example 187, cyclopentyl[(3-{[(4-chlorophenyl)acetyl]amino}-4-oxo-3,4-dihydrophthalazin-1-yl)methyl]carbamate] |
| 151% | 1.13 µM |  | Cc1cc(-c2nn(NC(=O)CC3CC4CCC3C4)c(=O)c3ccccc23)ccn1 (racemic) [Example 50, (±)-2-[(exo)-bicyclo[2.2.1]hept-2-yl]-N-[4-(2-methylpyridin-4-yl)-1-oxophthalazin-2(1H)-yl]acetamide] |
| 19.6% |  |  | O=C(Cc1ccc(Cl)cc1)Nn1nc(-c2cccnc2)c2ccccc2c1=O [Example 9, 2-(4-chlorophenyl)-N-[1-oxo-4-(pyridin-3-yl)phthalazin-2(1H)-yl]acetamide] |
| 120% | 0.889 µM |  | Nc1ccc(Sc2nn(NC(=O)Cc3ccc(Cl)cc3)c(=O)c3ccccc23)cc1 [Example 105, N-{4-[(4-aminophenyl)sulfanyl]-1-oxophthalazin-2(1H)-yl}-2-(4-chlorophenyl)acetamide] |
| 80% | 5.51 µM |  | O=C(Cc1cccc(Cl)c1)Nn1nc(N2CCOCC2)c2ccccc2c1=O [Example 152, 2-(3-chlorophenyl)-N-[4-(morpholin-4-yl)-1-oxophthalazin-2(1H)-yl]acetamide] |

| Emax (HEK293 KCNQ2/KCNQ3 cells) | EC50 | % MAX (maximum response relative to the response of 10 μM retigabine (set at 100%), HEK293 KCNQ2/KCNQ3 cells) | SMILES |
| --- | --- | --- | --- |
| 37.3% | 0.146 µM |  | CC(C)(CC(=O)Nn1nc(S(=O)(=O)c2ccc(C#N)cc2)c2ccccc2c1=O)c1ccccc1 [Example 225, N-{4-[(4-cyanophenyl)sulfonyl]-1-oxophthalazin-2(1H)-yl}-3-methyl-3-phenylbutanamide] |
| 21.8% |  |  | COC(=O)c1cc(-c2nn(NC(=O)CC3CC4CCC3C4)c(=O)c3ccccc23)ccn1 (racemic) [Example 74, (±)-methyl 4-(3-{[(exo)-bicyclo[2.2.1]hept-2-ylacetyl]amino}-4-oxo-3,4-dihydrophthalazin-1-yl)pyridine-2-carboxylate] |
| 21.8% |  |  | CC(C(=O)NCC(C)(C)C)c1nn(NC(=O)Cc2ccc(Cl)cc2)c(=O)c2ccccc12 (stereo not shown) [Example 113, 2-(3-{[(4-chlorophenyl)acetyl]amino}-4-oxo-3,4-dihydrophthalazin-1-yl)-N-(2,2-dimethylpropyl)propanamide] |
| 13.7% |  |  | NC(=O)c1cc(-c2nn(NC(=O)CC3CC4CCC3C4)c(=O)c3ccccc23)ccn1 (racemic) [Example 72, (±)-4-(3-{[(exo)-bicyclo[2.2.1]hept-2-ylacetyl]amino}-4-oxo-3,4-dihydrophthalazin-1-yl)pyridine-2-carboxamide] |
|  |  | 11.8% | CC(C)[C@H]1CC[C@H](C)C[C@@H]1OC(=O)NCc1nn(NC(=O)Cc2ccc(Cl)cc2)c(=O)c2ccccc12 [Example 186, (1S,2R,5S)-5-methyl-2-(propan-2-yl)cyclohexyl[(3-{[(4-chlorophenyl)acetyl]amino}-4-oxo-3,4-dihydrophthalazin-1-yl)methyl]carbamate] |
| 15.7% |  |  | O=C(Cc1ccccc1)NCc1nn(NC(=O)Cc2ccc(Cl)cc2)c(=O)c2ccccc12 [Example 86, 2-(4-chlorophenyl)-N-[1-oxo-4-{[(phenylacetyl)amino]methyl}phthalazin-2(1H)-yl]acetamide] |
| 151% | 0.0583 µM |  | O=C(CC12CC3CC(CC1C3)C2)Nn1nc(S(=O)(=O)c2ccccc2)c2ccccc2c1=O [Example 218, 2-(hexahydro-2,5-methanopentalen-3a(1H)-yl)-N-[1-oxo-4-(phenylsulfonyl)phthalazin-2(1H)-yl]acetamide] |
| 33.6% | 9.08 µM |  | O=C(Cc1ccc(Cl)cc1)Nn1nc(CNS(=O)(=O)C(F)(F)F)c2ccccc2c1=O [Example 79, 2-(4-chlorophenyl)-N-[1-oxo-4-({[(trifluoromethyl)sulfonyl]amino}methyl)phthalazin-2(1H)-yl]acetamide] |
| 153% | 3.89 µM |  | O=C(CC1CCCCC1)Nn1nc(N2CCOCC2)c2ccccc2c1=O [Example 138, 2-cyclohexyl-N-[4-(morpholin-4-yl)-1-oxophthalazin-2(1H)-yl]acetamide] |
| 142% | 0.331 µM |  | O=C(CC1CC2CCC1C2)Nn1nc(N2CCOCC2)c2ccccc2c1=O (racemic) [Example 3, (±)-2-[(exo)-bicyclo[2.2.1]hept-2-yl]-N-[4-(morpholin-4-yl)-1-oxophthalazin-2(1H)-yl]acetamide] |
| 135% | 7.68 µM |  | O=C(CC1CCCC1)Nn1nc(N2CCOCC2)c2ccccc2c1=O [Example 137, 2-cyclopentyl-N-[4-(morpholin-4-yl)-1-oxophthalazin-2(1H)-yl]acetamide] |
| 40.7% | 2.85 µM |  | CC(C)(C)OC(=O)NCc1nn(NC(=O)Cc2ccc(C(F)(F)F)cc2)c(=O)c2ccccc12 [Example 118, tert-butyl{[4-oxo-3-({[4-(trifluoromethyl)phenyl]acetyl}amino)-3,4-dihydrophthalazin-1-yl]methyl}carbamate] |
| 229% | 0.0782 µM |  | O=C(CC1CC2CCC1C2)Nn1nc(N2CCSCC2)c2ccccc2c1=O (racemic) [Example 93, (±)-2-[(exo)-bicyclo[2.2.1]hept-2-yl]-N-[1-oxo-4-(thiomorpholin-4-yl)phthalazin-2(1H)-yl]acetamide] |
| 146% | 0.381 µM |  | N#Cc1cc(-c2nn(NC(=O)CC3CC4CCC3C4)c(=O)c3ccccc23)ccn1 (racemic) [Example 45, (±)-2-[(exo)-bicyclo[2.2.1]hept-2-yl]-N-[4-(2-cyanopyridin-4-yl)-1-oxophthalazin-2(1H)-yl]acetamide] |
| 89.1% | 10.1 µM |  | CC(C)(C)C(=O)NCc1nn(NC(=O)Cc2ccc(Cl)cc2)c(=O)c2ccccc12 [Example 87, N-[(3-{[(4-chlorophenyl)acetyl]amino}-4-oxo-3,4-dihydrophthalazin-1-yl)methyl]-2,2-dimethylpropanamide] |
| 146% | 0.168 µM |  | O=C(CC1CC2CCC1C2)Nn1nc(-c2ccccn2)c2ccccc2c1=O (racemic) [Example 19, (±)-2-[(exo)-bicyclo[2.2.1]hept-2-yl]-N-[1-oxo-4-(pyridin-2-yl)phthalazin-2(1H)-yl]acetamide] |
| 120% | 0.134 µM |  | CC(C)(C)Sc1nn(NC(=O)Cc2ccc(Cl)cc2)c(=O)c2ccccc12 [Example 198, N-[4-(tert-butylsulfanyl)-1-oxophthalazin-2(1H)-yl]-2-(4-chlorophenyl)acetamide] |
